Laboratory results: publication PMC7284125, “Identification of annotated bioactive molecules that impair motility of the blood fluke Schistosoma mansoni” (International Journal for Parasitology: Drugs and Drug …, 2020)
Like-named read-outs stand apart in the source and are kept apart here.

How the values were obtained:
[1] = tested on: S. mansoni schistosomulae; experiment: Phenotypic primary screen assay on schistosomulae (phenotype; viability by methylene blue dye exclusion); type: cell-based; settings: Schistosoma mansoni
[2] = tested on: S. mansoni schistosomulae; experiment: as above; type: cell-based, Schistosoma mansoni; settings: three-day-old schistosomulae, 10 μM, 24 h; estimated 5 days post compound exposure
Procedure, shortened: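 Parasites lacking contraction/relaxation cycles and showing dark internal granulations counted as dead. Movement and body shape were compared with DMSO-treated controls under a stereo microscope at 24 h and at five days of exposure. Larvae came from infected snails shed under light for 2 h at 32 °C.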

S. mansoni adult worms = experiment: Motility assay on adult parasites (pixel displacement, relative to DMSO control); type: cell-based, Schistosoma mansoni; settings: 10 μM; for Fractional motility: secondary screen
Procedure, shortened: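 Unpaired adult worms from mice 6 weeks post-infection kept in OPTI-MEM with 5% dialyzed FBS and exposed to compounds at 1 and 10 μM for 24 h. Motility filmed 1 min at 10 frames/s, quantified by pixel displacement versus DMSO-treated worms; recovery followed up to five days after washout.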

[3] = tested on: S. mansoni schistosomulae; experiment: Motility assay on schistosomulae (pixel displacement, relative to DMSO control); type: cell-based, Schistosoma mansoni; settings: for activity at 1 µM: Schistosoma mansoni, read-out: Fractional motility; for motility in extended assay with reduced incubation times, in words: three-day old schistosomulae, incubation 1 h, 3 h, 6 h
Procedure, shortened: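 Mechanically transformed S. mansoni schistosomulae (200/well) in Opti-MEM with 5% dialyzed FBS were exposed to compounds at 1 and 10 μM for 24 h at 37 °C, 5% CO2. Motility filmed at 10 frames/s for 1 min and quantified by pixel displacement relative to DMSO-treated controls.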

[4] = three-day-old schistosomulae, 10 μM, 24 h, calculated 5 days post compound exposure, read-out: Viability (%)
[5] = 120 h, schistosomulae, secondary screen, 24h exposure, read at D5, 1 µM
[6] = schistosomulae, secondary screen, 24h exposure, read at D1, 1 µM
[7] = schistosomulae, 1h exposure, read at D1, 10 µM
[8] = schistosomulae, 1h exposure, read at D5, 10 µM
[9] = schistosomulae, 3h exposure, read at D1, 10 µM
[10] = schistosomulae, 3h exposure, read at D5, 10 µM
[11] = schistosomulae, 6h exposure, read at D1, 10 µM
[12] = schistosomulae, secondary screen, 24h exposure, read at D1, 10 µM
[13] = schistosomulae, secondary screen, 24h exposure, read at D5, 10 µM
[14] = Selleckchem customized library secondary screen, 24h, D1, 10 µM
[15] = Selleckchem customized library secondary screen, 24h, D5, 10 µM
[16] = schistosomulae, 6h exposure, read at D5, 10 µM

Row | Compound | viability at 10 µM [1, 4] | Phenotype [2] | Fractional motility (S. mansoni adult worms; D1, Female adult worms) | Fractional motility (S. mansoni adult worms; D1, Male adult worms) | Fractional motility (S. mansoni adult worms; D5, Female adult worms) | Fractional motility (S. mansoni adult worms; D5, Male adult worms) | activity at 1 µM [3, 5] | activity at 1 µM [3, 6] | Fractional motility [3, 12] | Fractional motility [3, 13] | further results
1 | C[C@@H](NCCCc1cccc(C(F)(F)F)c1)c1cccc2ccccc12 [AMG-073] | 55% | big, granulated, blebbing | 0.11 | -0.24 | -0.43 | -0.27 | -32% | -28% | -0.83 | -1.00 | Fractional motility [3, 7]: 7.02; Fractional motility [3, 8]: 0.35; Fractional motility [3, 9]: 12.64; Fractional motility [3, 10]: 0.72; Fractional motility [3, 11]: 6.39; motility in extended assay with reduced incubation times, in words [3]: did not exhibit a significant change before the 24 hr incubation cut-off
2 | CNCc1ccc(C)c(NC(=O)c2ccc(Nc3nc(-c4ccccc4)c4ccccc4n3)cc2)c1 [BMS-833923] | 32.5% | big, granulated | -0.84 | -0.59 | -0.64 | 0.14 | -48% | 10% | 10.40 | -0.90 | –
3 | CN1CCN(C2=Nc3cc(Cl)ccc3Nc3ccccc32)CC1 [Clozapine] | 98% | elongated | 2.39 | 2.19 | -0.70 | 0.45 | 121% | 625% | 23.43 | -0.13 | –
4 | CN(C)[C@@H](CCOc1cccc2ccccc12)c1ccccc1 [Dapoxetine] | 97.5% | elongated, granulated | 2.14 | 2.05 | -0.24 | -0.50 | – | – | – | – | activity at 1 µM ([3]; Selleckchem customized library secondary screen, 24h, D1, 1 µM): 253%; Fractional motility [3, 14]: 69.58; Fractional motility [3, 15]: 15.51
5 | C=C1C(=O)O[C@@H]2/C=C(\C)CC/C=C(\C)CC[C@@H]12 [Costunolide] | 1.5% | big, granulated | -0.10 | – | -0.83 | – | 16% | -57% | -0.92 | -0.94 | Fractional motility [3, 7]: -0.77; Fractional motility [3, 8]: -0.29; Fractional motility [3, 9]: 0.34; Fractional motility [3, 10]: 1.03; Fractional motility [3, 11]: 2.25; Fractional motility [3, 16]: -0.56; motility in extended assay with reduced incubation times, in words [3]: did not exhibit a significant change before the 24 hr incubation cut-off
6 | CCOC(=O)C1=C(C)NC(C)=C(C(=O)OCC)C1c1ccccc1/C=C/C(=O)OC(C)(C)C [Lacidipine] | 99% | granulated | -0.73 | -0.50 | -0.82 | -0.53 | -11% | 99% | 3.79 | 0.28 | –
7 | CN(C)CC/C=C1/c2ccccc2Sc2ccc(Cl)cc21 [Chlorprothixene] | 99% | elongated | 2.18 | 2.53 | 0.23 | 0.16 | – | – | – | – | activity at 1 µM ([3]; 120 h, Selleckchem customized library secondary screen, 24h, D5, 1 µM): 207%; Fractional motility [3, 14]: 73.31; Fractional motility [3, 15]: 9.20; motility phenotype in words ([3]; schistosomulae, after 24 h exposure): high levels of hypermotility
8 | CCCN1C[C@H](CSC)C[C@@H]2c3cccc4[nH]cc(c34)C[C@H]21 [Pergolide] | 99% | big, round | 0.25 | 2.14 | -0.82 | -0.30 | -25% | 139% | 18.64 | -0.34 | –
9 | NC(=O)C(c1ccccc1)(c1ccccc1)[C@@H]1CCN(CCc2ccc3c(c2)CCO3)C1 [Darifenacin] | – | elongated, granulated | 1.90 | 3.54 | -0.69 | -0.23 | -59% | -60% | -0.70 | 0.35 | viability at 10 µM [1]: 98.5%
10 | CN(C)CCC=C1c2ccccc2CCc2ccccc21 [Amitriptyline] | 90% | elongated, granulated, blebbing | 0.24 | 1.53 | 0.30 | 0.03 | -4% | 286% | 5.01 | 0.60 | –
11 | Cc1cccc(C(C)c2cnc[nH]2)c1C (centres unmarked) [Medetomidine] | 100% | elongated | 1.05 | 2.75 | -0.85 | 0.31 | 10% | -39% | -0.24 | 0.20 | –
12 | C=CC(=O)Nc1cccc(Oc2nc(Nc3ccc(N4CCN(C)CC4)cc3OC)ncc2Cl)c1 [WZ4002] | 7% | dark, granulated | 0.66 | 0.64 | -0.61 | 1.33 | 51% | -58% | – | -0.62 | motility phenotype in words (S. mansoni adult worms; adults, long-term after washout): hypermotility in male worms and hypomotility in females
13 | Cc1ccc(C(=O)N(CCCN)[C@@H](c2nc3cc(Cl)ccc3c(=O)n2Cc2ccccc2)C(C)C)cc1 [Ispinesib] | 96% | big, granulated | 3.19 | 2.22 | -0.34 | -0.33 | 125% | 24% | -0.92 | -0.39 | –
14 | Cc1c(C(=O)NN2CCCCC2)nn(-c2ccc(Cl)cc2Cl)c1-c1ccc(Cl)cc1 [Rimonabant] | 98.5% | abnormal morphology, granulated | -0.30 | 0.0659 | -0.41 | -0.55 | -21% | 433% | 12.27 | 4.07 | –
15 | CC(C)(C)c1cc(NC(=O)Nc2ccc(-c3cn4c(n3)sc3cc(OCCN5CCOCC5)ccc34)cc2)no1 [Quizartinib] | 54% | granulated | 0.64 | 4.64 | -0.59 | -0.09 | -2.37% | – | – | -0.36 | –
16 | COCCn1c2c([n+](Cc3cnccn3)c1C)C(=O)c1ccccc1C2=O [YM155] | 40% | big, granulated | 0.22 | 1.90 | -0.79 | 0.70 | -82% | -73% | -0.91 | -1.00 | Fractional motility [3, 7]: -0.48; Fractional motility [3, 8]: -0.85; Fractional motility [3, 9]: -0.70; Fractional motility [3, 10]: -0.96; Fractional motility [3, 11]: 1.86; Fractional motility [3, 16]: -1.00; motility in extended assay with reduced incubation times, in words [3]: significant and sustained hypomotility
17 | CNCCC(Oc1ccc(C(F)(F)F)cc1)c1ccccc1 (centres unmarked) [Fluoxetine] | 98.5% | elongated | 1.96 | 2.26 | 0.45 | -0.0243 | 105% | – | 15.72 | 0.95 | –
18 | CN(C)CCC[C@@]1(c2ccc(F)cc2)OCc2cc(C#N)ccc21 [Escitalopram] | 98% | abnormal morphology | 2.54 | 6.67 | 0.95 | 0.26 | 16% | 361% | 5.42 | 0.71 | –
